Results on 15 compounds are retold here after ChEMBL document CHEMBL2412992, “Fluorescent ligands for adenosine receptors” (Bioorg Med Chem Lett, 2013).

SMILES strings stand for the structures. Activity calls are given as the source filed them. The rule behind the calls is not given here.

The target of experiment [1] is T1, Adenosine receptor A3 (Homo sapiens, UniProt P0DMS8).
T1 sequence (P0DMS8 whole entry): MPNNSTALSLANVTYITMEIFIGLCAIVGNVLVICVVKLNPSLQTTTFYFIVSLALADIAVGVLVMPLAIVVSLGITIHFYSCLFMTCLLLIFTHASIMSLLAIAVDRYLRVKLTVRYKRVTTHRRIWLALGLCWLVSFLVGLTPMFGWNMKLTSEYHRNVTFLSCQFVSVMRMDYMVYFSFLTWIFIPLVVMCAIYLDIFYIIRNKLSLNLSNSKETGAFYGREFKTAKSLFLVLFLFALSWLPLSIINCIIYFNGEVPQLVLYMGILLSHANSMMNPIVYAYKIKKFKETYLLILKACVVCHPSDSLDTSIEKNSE
The experiment is classed as cell-based, CHO.

Experiment [2] concerns the target T1, Adenosine receptor A3. The experiment in a line: Binding affinity to human adenosine A3 receptor expressed in CHO cells after 90 mins. The format is cell-based.
The target in experiment [3] is T1, Adenosine receptor A3. As to the kind of experiment: Binding affinity to human adenosine A3 receptor expressed in CHO cells by flow cytometric analysis. The experiment is classed as cell-based. (In flow cytometry, cells or beads pass a laser one at a time.)
The target in experiment [4] is T2, Adenosine receptor A1 (Homo sapiens, UniProt P30542).
T2 sequence (P30542 whole entry): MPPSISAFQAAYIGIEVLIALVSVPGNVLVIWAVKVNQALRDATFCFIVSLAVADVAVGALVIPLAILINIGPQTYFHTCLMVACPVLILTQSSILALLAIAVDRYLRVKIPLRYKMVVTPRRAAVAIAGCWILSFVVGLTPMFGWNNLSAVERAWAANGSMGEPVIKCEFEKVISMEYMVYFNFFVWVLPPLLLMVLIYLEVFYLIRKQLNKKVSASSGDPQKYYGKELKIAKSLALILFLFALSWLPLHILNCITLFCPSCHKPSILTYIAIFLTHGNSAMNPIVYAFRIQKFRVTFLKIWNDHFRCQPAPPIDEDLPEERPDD
As to the kind of experiment: Displacement of [3H]R-PIA from human adenosine A1 receptor expressed in CHO cells after 60 mins by […] analysis. The experiment is classed as cell-based. Background: Loss of bound radioactivity is the signal in a displacement assay; it reports binding, not function.

Experiment [5] deals with T3, Adenosine receptor A2a (Homo sapiens, UniProt P29274). The experiment in a line: Displacement of [3H]CGS21680 from human adenosine A2A receptor expressed in HEK293 cells after 60 mins by […] analysis. The experiment is classed as cell-based.
For experiment [6], the target named is T3, Adenosine receptor A2a. The experiment in a line: Competitive binding affinity to human adenosine A2A receptor expressed in HEK293 cells after 60 mins by fluorescence polarization assay in presence of MRS5346. Background: Fluorescence polarisation rises when a labelled molecule tumbles more slowly, as on binding a larger partner.
In another experiment the target is Uncharacterized protein (Bos taurus, UniProt E1BKU0). As to the kind of experiment: Displacement of [3H]CGS21680 from adenosine A2A receptor in bovine striatal membranes after 90 mins by liquid scintillation counting analysis. The experiment is classed as cell membranes, Striatum, Membrane.
For experiment [7], the target named is T4, Adenosine receptor A1 (Rattus norvegicus, UniProt P25099).
T4 sequence (P25099 whole entry): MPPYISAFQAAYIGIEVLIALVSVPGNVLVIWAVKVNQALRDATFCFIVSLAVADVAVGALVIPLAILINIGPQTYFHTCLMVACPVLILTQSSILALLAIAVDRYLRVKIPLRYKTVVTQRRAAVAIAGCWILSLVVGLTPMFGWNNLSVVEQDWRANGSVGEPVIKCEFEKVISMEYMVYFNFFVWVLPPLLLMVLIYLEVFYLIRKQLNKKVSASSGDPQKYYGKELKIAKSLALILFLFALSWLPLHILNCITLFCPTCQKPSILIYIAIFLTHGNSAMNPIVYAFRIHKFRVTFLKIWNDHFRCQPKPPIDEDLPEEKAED
The experiment in a line: Displacement of [3H]ADAC from adenosine A1 receptor in rat cerebral cortical membranes after 120 mins. The experiment is classed as cell membranes, Membrane.

The target of experiment [8] is T5, Adenosine receptor A1 (Bos taurus, UniProt P28190).
T5 sequence (P28190 whole entry): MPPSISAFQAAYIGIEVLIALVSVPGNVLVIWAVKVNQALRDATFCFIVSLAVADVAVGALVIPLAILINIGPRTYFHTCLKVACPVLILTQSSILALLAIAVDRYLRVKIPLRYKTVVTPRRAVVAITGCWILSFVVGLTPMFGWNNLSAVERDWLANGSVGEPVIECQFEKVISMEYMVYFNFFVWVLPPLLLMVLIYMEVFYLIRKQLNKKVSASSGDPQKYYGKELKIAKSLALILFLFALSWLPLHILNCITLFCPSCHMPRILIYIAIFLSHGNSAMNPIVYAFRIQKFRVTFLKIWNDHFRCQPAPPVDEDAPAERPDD
As to the kind of experiment: Displacement of [3H]ADAC from adenosine A1 receptor in bovine cerebral cortical membranes after 120 mins. The format is cell membranes.

Experiment [9] has as its target T1, Adenosine receptor A3. As to the kind of experiment: biochemical.
Description: (§1) Displacement of [125I]I-AB-MECA from human adenosine A3 receptor expressed in CHO cells after 90 mins by gamma counting analysis
Experiment [10] has as its target T1, Adenosine receptor A3.
Description: Competitive binding affinity to human adenosine A3 receptor expressed in CHO cells after 90 mins by flow cytometric analysis in presence of MRS5449
Experiment [11] has as its target T3, Adenosine receptor A2a. The experiment in a line: Binding affinity to human adenosine A2A receptor expressed in HEK293 cells by fluorescence polarization assay. The experiment is classed as cell-based.
In experiment [12] the target is T3, Adenosine receptor A2a. The experiment in a line: Displacement of [3H]CGS21680 from human adenosine A2A receptor expressed in HEK293 cells at 10 uM after 60 mins by […] analysis relative to control. The format is cell-based.
Experiment [13] addresses T6, Adenosine receptor A1 (Homo sapiens) (UniProt P30542).
T6 sequence (whole entry): T2 sequence (P30542 whole entry)
As to the kind of experiment: Displacement of [3H]R-PIA from human adenosine A1 receptor expressed in CHO cells at 10 uM after 60 mins by […] analysis relative to control. The experiment is classed as cell-based.

For experiment [14], the target named is T1, Adenosine receptor A3. The source holds these as a separate data set.
Description: as §1
The target in experiment [15] is T6, Adenosine receptor A1 (Homo sapiens). As to the kind of experiment: Competitive antagonist activity at GFP-tagged adenosine A1 receptor (unknown origin) expressed in CHO cells assessed as stimulation of inositol phosphate accumulation by scintillation counting analysis. The format is functional, cell-based.
The target is the same in experiment [16]. As to the kind of experiment: Competitive antagonist activity at GFP-tagged adenosine A1 receptor (unknown origin) expressed in CHO cells assessed as inhibition of forskolin-stimulated cAMP accumulation by liquid scintillation counting analysis. The experiment is classed as functional, cell-based.
The target is the same in experiment [17]. The experiment in a line: Displacement of [3H]DPCPX from human adenosine A1 receptor expressed in CHO cells up to 0.1 mM after 2 hrs by scintillation counting analysis. The format is cell-based.

In general, Ki refers to a dissociation constant, usually derived from enzyme kinetics or from competition with a known ligand. Broadly, the Kd is the concentration at which binding is half-saturated. A low value points to a tighter complex. What is called inhibition is how much of the control response was suppressed. Read a low inhibition as a weak effect. What is called pKb is −log10 of the Kb, conventionally taken in molar units.

T3 sequence (P29274 whole entry): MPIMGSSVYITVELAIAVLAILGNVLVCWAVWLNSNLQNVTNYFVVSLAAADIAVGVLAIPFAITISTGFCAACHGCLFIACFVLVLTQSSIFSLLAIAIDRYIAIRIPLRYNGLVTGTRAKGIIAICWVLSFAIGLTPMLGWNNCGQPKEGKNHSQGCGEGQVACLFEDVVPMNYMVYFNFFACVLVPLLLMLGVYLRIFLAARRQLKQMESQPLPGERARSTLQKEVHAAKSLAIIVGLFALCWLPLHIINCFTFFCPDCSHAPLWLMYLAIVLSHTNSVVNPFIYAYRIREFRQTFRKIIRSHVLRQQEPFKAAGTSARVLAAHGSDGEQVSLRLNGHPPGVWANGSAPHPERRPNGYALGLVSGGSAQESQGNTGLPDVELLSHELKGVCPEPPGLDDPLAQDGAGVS
Uncharacterized protein, sequence (E1BKU0 whole entry): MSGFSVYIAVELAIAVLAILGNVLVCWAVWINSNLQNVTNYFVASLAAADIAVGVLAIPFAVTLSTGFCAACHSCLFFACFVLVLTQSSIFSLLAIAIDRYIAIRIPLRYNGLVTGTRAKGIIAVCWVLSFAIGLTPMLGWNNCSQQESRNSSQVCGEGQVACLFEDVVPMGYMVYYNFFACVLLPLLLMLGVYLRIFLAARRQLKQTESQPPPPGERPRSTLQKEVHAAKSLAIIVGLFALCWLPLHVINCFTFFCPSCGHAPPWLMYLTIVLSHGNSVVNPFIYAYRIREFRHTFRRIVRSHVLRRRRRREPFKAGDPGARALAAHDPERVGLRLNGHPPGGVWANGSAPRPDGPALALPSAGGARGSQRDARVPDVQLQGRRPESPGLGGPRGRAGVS

Regarding `N=c1ccc2c(-c3ccc(C(=O)NCCCCCCn4cc(CCCC(=O)Nc5nc6ccc(Cl)cc6c6nc(-c7ccco7)nn56)nn4)cc3C(=O)O)c3ccc(N)c(S(=O)(=O)O)c3oc-2c1S(=O)(=O)O`, the Ki at Adenosine receptor A3 [1] was 6.46 nM; at Adenosine receptor A1 [4], 87.1 nM; on Adenosine receptor A2a [5], 74.1 nM. Besides, the Kd at Adenosine receptor A3 [2] amounted to 6.65 nM; on Adenosine receptor A3 [3], 5.15 nM. Consider `OC[C@H]1O[C@@H](n2cnc3c(NC4CCCC4)ncnc32)[C@H](O)[C@@H]1O` [N6-CYCLOPENTYLADENOSINE], for which the inhibitory constant (Ki) at Adenosine receptor A2a [6] is 814 nM. `CCNC(=O)[C@H]1O[C@@H](n2cnc3c(N)nc(NCCc4ccc(CCC(=O)NCCNC(=S)Nc5ccc(C6c7ccc(O)cc7OC7=CC(=O)C=CC76)c(C(=O)O)c5)cc4)nc32)[C@H](O)[C@@H]1O` (some centres undefined) gave a Ki at Uncharacterized protein of 11.2 nM. As to `O=C(Cc1ccc(NC(=O)Cc2ccc(Nc3ncnc4c3ncn4[C@@H]3O[C@H](CO)[C@@H](O)[C@H]3O)cc2)cc1)NCCNc1ccc([N+](=O)[O-])c2nonc12`, the results for the inhibition constant (Ki) on Adenosine receptor A1 [7] and at Adenosine receptor A1 [8] were 4.37 nM and 1.62 nM, respectively. As for `CC[C@@H]1CN2C(=O)N(C)c3nc(-c4cc(Cl)cc(Cl)c4Cl)[nH]c3C2=N1`, the Ki at Adenosine receptor A3 [9] stood at 0.441 nM; on Adenosine receptor A3 [10], 9.54 nM. As to `CCCN1C(=O)C2NC(c3ccc(OCC(=O)NCCNC(=O)NCC(=O)NCC(=O)NCC(=S)c4ccc(C5c6ccc(O)cc6OC6=CC(=O)C=CC65)c(C(=O)O)c4)cc3)=NC2N(CCC)C1=O` (centres undefined), the figures for the inhibition constant Ki at Adenosine receptor A1 [7] and at Adenosine receptor A1 [8] were 97.7 nM and 17 nM, respectively. Regarding `N=c1ccc2c(-c3ccc(C(=O)NCCCCCCn4cc(NCCNC(=O)COc5ccc(CCCn6ncc7c6nc(N)n6nc(-c8ccco8)nc76)cc5)nn4)cc3C(=O)O)c3ccc(N)c(S(=O)(=O)O)c3oc-2c1S(=O)(=O)O`, the Kd on Adenosine receptor A2a [11] is 16.5 nM. On to `O=C1C=CC2C(=C1)Oc1cc(O)ccc1C2c1ccc(NC(=S)NCCNC(=O)Cc2ccc(NC(=O)Cc3ccc(Nc4ncnc5c4ncn5[C@@H]4O[C@H](CO)[C@@H](O)[C@H]4O)cc3)cc2)cc1C(=O)O` (some centres undefined), for which the inhibitory constant (Ki) at Adenosine receptor A1 [7] is 7.24 nM; on Adenosine receptor A1 [8] it was 2.88 nM. In the case of `Cn1cc2c(nc(NCCOCCOCCNC(=S)Nc3ccc(C4c5ccc(O)cc5OC5=CC(=O)C=CC54)c(C(=O)O)c3)n3nc(-c4ccco4)nc23)n1` (centres undefined), the inhibition constant Ki at Adenosine receptor A3 [1] was 9550 nM. Moreover, the inhibition was 30% at Adenosine receptor A2a [12] and 0% in [13]. Consider `Nc1nc(NCCc2ccc(O)cc2)nc2nc(-c3ccco3)nn12` [ZM-241385], for which the inhibition constant Ki on Adenosine receptor A3 [14] came to 743 nM. For the compound `Nc1nc2ccc(Cl)cc2c2nc(-c3ccco3)nn12` [CGS-15943], the Ki at Adenosine receptor A3 [14] turned out to be 35 nM.

As for `CCCn1c(=O)c2[nH]c(-c3ccc(OCC(=O)NCCNC(=O)CCCCCNC(=O)COc4ccc(/C=C/C5=[N+]6C(=Cc7ccc(-c8cccs8)n7[B-]6(F)F)C=C5)cc4)cc3)nc2n(CCC)c1=O`, the negative logarithm of the Kb (pKb) in [15] amounted to 6.5; in experiment [16] it was 6.4. With `CCNC(=O)[C@H]1O[C@@H](n2cnc3c(NCCCCNC(=O)CCC4=[N+]5C(=Cc6c(C)cc(C)n6[B-]5(F)F)C=C4)ncnc32)[C@H](O)[C@@H]1O`, the outcome in [17] was inactive.

On to `CCCn1c(=O)c2[nH]c(-c3ccc(OCC(=O)NCCNC(=S)Nc4ccc(C5c6ccc(O)cc6OC6=CC(=O)C=CC65)c(C(=O)O)c4)cc3)nc2n(CCC)c1=O` (centres undefined), for which the Ki is 126 nM at Adenosine receptor A1 [7] and 9.33 nM at Adenosine receptor A1 [8].

For the compound `Cn1cc2c(nc(NNC(=S)Nc3ccc(C4c5ccc(O)cc5OC5=CC(=O)C=CC54)c(C(=O)O)c3)n3nc(-c4ccco4)nc23)n1` (centres undefined), the results for the inhibition constant Ki on Adenosine receptor A3 [1], at Adenosine receptor A1 [4] and on Adenosine receptor A2a [5] were 794 nM, 9550 nM and 933 nM, respectively.
